Drawing on patent publication US9284333B2, “Fused pyrroledicarboxamides and their use as pharmaceuticals” (SANOFI, priority 2012, dated 2016), this text covers inhibition and IC50 for 31 molecules.

Human TASK-1 channels, sequence (O14649 whole entry, the tested form may be a part): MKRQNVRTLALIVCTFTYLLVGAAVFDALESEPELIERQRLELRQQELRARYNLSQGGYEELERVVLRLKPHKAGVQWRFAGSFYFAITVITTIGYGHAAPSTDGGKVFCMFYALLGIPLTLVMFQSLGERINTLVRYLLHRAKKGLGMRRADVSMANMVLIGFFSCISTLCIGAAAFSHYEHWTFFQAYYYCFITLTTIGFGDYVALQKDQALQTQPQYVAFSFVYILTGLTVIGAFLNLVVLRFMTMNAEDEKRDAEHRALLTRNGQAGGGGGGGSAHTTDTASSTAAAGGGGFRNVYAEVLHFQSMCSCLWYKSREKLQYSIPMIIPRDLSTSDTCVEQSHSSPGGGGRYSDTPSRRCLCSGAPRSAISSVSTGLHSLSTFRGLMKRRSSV

One assay addresses Human TASK-1 channels (Homo sapiens (Human), UniProt O14649). Description: Determination of the activity on the TASK-1 channel in Xenopus oocytes (two-microelectrode voltage clamp). Format: cell-based. The settings on record: compound concentration 5 μM. The method, boiled down: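 Xenopus oocytes were injected with human TASK-1 cRNA and recorded two days later by two-microelectrode voltage clamp, holding at −90 mV with 500 ms steps to 40 mV. Superfusion used ND96, pH 7.4, at room temperature, with rising compound concentrations; percentage inhibition of control current was fitted to a dose-response curve for IC50.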
As a reminder, the inhibition is the drop in the measured response relative to a control, in per cent. Read a low inhibition as little suppression. For the molecule `CC[C@@H](NC(=O)c1cc(C(=O)N2CCC[C@@H]2c2ccc(C(F)(F)F)nc2)n2c1COCC2)c1ccccc1` [16ga, 6-[(R)-2-(6-Trifluoromethyl-pyridin-3-yl)-pyrrolidine-1-carbonyl]-3,4-dihydro-1H-pyrrolo[2,1-c][1,4]oxazine-8-carboxylic acid ((R)-1-phenyl-propyl)-amide], at 5 µM the inhibition was 67%.

Consider `C[C@H]1CCCN1C(=O)c1cc(C(=O)NCc2ccccc2Cl)c2n1CCOC2` [16an, 6-((S)-2-Methyl-pyrrolidine-1-carbonyl)-3,4-dihydro-1H-pyrrolo[2,1-c][1,4]oxazine-8-carboxylic acid 2-chloro-benzylamide], for which the inhibition at 5 µM turned out to be 81%.

Staying with this assay, now noted: human TASK-1 expressed in Xenopus oocytes, room temperature; read-out: IC50 value for TASK-1 inhibition.
By IC50 is commonly meant the concentration that inhibits the measured activity by half. Turning to `CC[C@@H](NC(=O)c1cc(C(=O)N2CCC[C@@H]2C)n2c1COCC2)c1cnc(C(F)(F)F)cc1Cl` [16br, 6-((S)-2-Methyl-pyrrolidine-1-carbonyl)-3,4-dihydro-1H-pyrrolo[2,1-c][1,4]oxazine-8-carboxylic acid [(R)-1-(4-chloro-6-trifluoromethyl-pyridin-3-yl)-propyl]-amide], the IC50 came out at 880 nM.

With `CC[C@@H](NC(=O)c1cc(C(=O)Nc2nc(C)c(C)s2)c2n1CCCC2)c1ccccc1` [16me, 5,6,7,8-Tetrahydro-indolizine-1,3-dicarboxylic acid 3-[((R)-1-phenyl-propyl)-amide] 1-[(4,5-dimethyl-thiazol-2-yl)-amide]], the IC50 is 340 nM.

As for `CC[C@@H](NC(=O)c1cc(C(=O)NC2CCCCC2)n2c1CCCC2)c1ccccc1` [16ml, 5,6,7,8-Tetrahydro-indolizine-1,3-dicarboxylic acid 3-cyclohexylamide 1-[((R)-1-phenyl-propyl)-amide]], the IC50 amounted to 130 nM.

As for `CCC(NC(=O)c1cc(C(=O)N2CCCC2)n2c1COCC2)c1ccccc1OC(F)F` (stereo not shown) [16cz, 6-(Pyrrolidine-1-carbonyl)-3,4-dihydro-1H-pyrrolo[2,1-c][1,4]oxazine-8-carboxylic acid [1-(2-difluoromethoxy-phenyl)-propyl]-amide], the 50% inhibitory concentration (IC50) worked out at 310 nM.

As for `CC[C@@H](NC(=O)c1cc(C(=O)N(C)CCOC)n2c1CCCC2)c1ccccc1` [16mh, 5,6,7,8-Tetrahydro-indolizine-1,3-dicarboxylic acid 3-[(2-methoxy-ethyl)-methyl-amide] 1-[((R)-1-phenyl-propyl)-amide]], the half-maximal inhibitory concentration (IC50) was found to be 160 nM.

Turning to `CC[C@@H](NC(=O)c1cc(C(=O)NC(C)c2ncccn2)c2n1CCOC2)c1ccccc1` (mixture of isomers) [16ka, 3,4-Dihydro-1H-pyrrolo[2,1-c][1,4]oxazine-6,8-dicarboxylic acid 6-[((R)-1-phenyl-propyl)-amide] 8-[(1-pyrimidin-2-yl-ethyl)-amide]], the IC50 came out at 460 nM.

Consider `CC[C@@H](NC(=O)c1cc(C(=O)N2CCC[C@@H]2C)n2c1COCC2)c1ccc(C#N)nc1` [16aa, 6-((S)-2-Methyl-pyrrolidine-1-carbonyl)-3,4-dihydro-1H-pyrrolo[2,1-c][1,4]oxazine-8-carboxylic acid [(R)-1-(6-cyano-pyridin-3-yl)-propyl]-amide], for which the 50% inhibitory concentration (IC50) amounted to 2400 nM.

As for `CC[C@@H](NC(=O)c1cc(C(=O)NCC(CC2CC2)c2ccccc2)n2c1CCCC2)c1ccccc1` (stereo partly drawn) [16na, 5,6,7,8-Tetrahydro-indolizine-1,3-dicarboxylic acid 3-[(3-cyclopropyl-2-phenyl-propyl)-amide] 1-[((R)-1-phenyl-propyl)-amide]], the 50% inhibitory concentration (IC50) worked out at 1700 nM.

Regarding `CC[C@@H](NC(=O)c1cc(C(=O)NCc2cnccn2)n2c1C(C)OCC2)c1ccccc1` (stereo partly drawn) [16li, 1-Methyl-3,4-dihydro-1H-pyrrolo[2,1-c][1,4]oxazine-6,8-dicarboxylic acid 8-[((R)-1-phenyl-propyl)-amide] 6-[(pyrazin-2-ylmethyl)-amide]], the half-inhibitory concentration (IC50) is 900 nM.

On to `CCC(NC(=O)c1cc(C(=O)N[C@H](CC)c2ccccc2)c2n1CCOC2)c1cccc(S(N)(=O)=O)c1` (stereo partly drawn) [16ji, 3,4-Dihydro-1H-pyrrolo[2,1-c][1,4]oxazine-6,8-dicarboxylic acid 8-[((R)-1-phenyl-propyl)-amide] 6-{[1-(3-sulfamoyl-phenyl)-propyl]-amide}], for which the half-inhibitory concentration (IC50) came to 1900 nM.

As to `CC[C@@H](NC(=O)c1cc(C(=O)N[C@@H](CO)C(C)C)n2c1COCC2)c1ccccc1` [16jj, 3,4-Dihydro-1H-pyrrolo[2,1-c][1,4]oxazine-6,8-dicarboxylic acid 6-[((R)-1-hydroxymethyl-2-methyl-propyl)-amide] 8-[((R)-1-phenyl-propyl)-amide]], the half-maximal inhibitory concentration (IC50) is 4400 nM.

In the case of `CC[C@@H](NC(=O)c1cc(C(=O)N(C)[C@@H](C)C(=O)NC(C)C)n2c1COCC2)c1ccccc1` [16rl], the concentration for half-maximal inhibition (IC50) came out at 4500 nM.

For the molecule `CC[C@@H](NC(=O)c1cc(C(=O)N2CCCC2c2ncccn2)n2c1COCC2)c1ccccc1` (stereo partly drawn) [16fz, 6-(2-Pyrimidin-2-yl-pyrrolidine-1-carbonyl)-3,4-dihydro-1H-pyrrolo[2,1-c][1,4]oxazine-8-carboxylic acid ((R)-1-phenyl-propyl)-amide], the concentration for half-maximal inhibition (IC50) turned out to be 5100 nM.

On to `C[C@H]1CCCN1C(=O)c1cc(C(=O)NCc2c(F)cccc2F)c2n1CCOC2` [16y, 6-((S)-2-Methyl-pyrrolidine-1-carbonyl)-3,4-dihydro-1H-pyrrolo[2,1-c][1,4]oxazine-8-carboxylic acid 2,6-difluoro-benzylamide], for which the IC50 amounted to 1000 nM.

As for `CC[C@@H](NC(=O)c1cc(C(=O)N2CCOCC2)n2c1CCCC2)c1ccccc1` [16nc, 3-(Morpholine-4-carbonyl)-5,6,7,8-tetrahydro-indolizine-1-carboxylic acid ((R)-1-phenyl-propyl)-amide], the IC50 stood at 2000 nM.

On to `CC[C@@H](NC(=O)c1cc(C(=O)N2CCC[C@@H]2C)n2c1COCC2)c1ccc(C(F)(F)F)cn1` [16bl, 6-((S)-2-Methyl-pyrrolidine-1-carbonyl)-3,4-dihydro-1H-pyrrolo[2,1-c][1,4]oxazine-8-carboxylic acid [(R)-1-(5-trifluoromethyl-pyridin-2-yl)-propyl]-amide], for which the IC50 was found to be 820 nM.

Regarding `CC[C@@H](NC(=O)c1cc(C(=O)N[C@H](C)c2ccc(F)cc2)n2c1COCC2)c1ccc(OC)nc1` [16du], the concentration for half-maximal inhibition (IC50) stood at 220 nM.

With `CC[C@@H](NC(=O)c1cc(C(=O)N2CCC[C@@H]2C)n2c1COCC2)c1ccccc1C(F)(F)F` [16s, 6-((S)-2-Methyl-pyrrolidine-1-carbonyl)-3,4-dihydro-1H-pyrrolo[2,1-c][1,4]oxazine-8-carboxylic acid [(R)-1-(2-trifluoromethyl-phenyl)-propyl]-amide], the 50% inhibitory concentration (IC50) was 250 nM.

In the case of `CC[C@@H](NC(=O)c1cc(C(=O)NCC(C)(C)C)n2c1COCC2)c1ccccc1` [16go, 3,4-Dihydro-1H-pyrrolo[2,1-c][1,4]oxazine-6,8-dicarboxylic acid 6-[(2,2-dimethyl-propyl)-amide] 8-[((R)-1-phenyl-propyl)-amide]], the IC50 was 900 nM.

On to `CC[C@@H](NC(=O)c1cc(C(=O)NCc2ncco2)n2c1COCC2)c1ccccc1` [16ha, 3,4-Dihydro-1H-pyrrolo[2,1-c][1,4]oxazine-6,8-dicarboxylic acid 6-[(oxazol-2-ylmethyl)-amide] 8-[((R)-1-phenyl-propyl)-amide]], for which the half-maximal inhibitory concentration (IC50) was found to be 350 nM.

On to `O=C(NC(CC(F)(F)F)c1ccccc1)c1cc(C(=O)N2CCCC2)n2c1COCC2` (stereo not shown) [16dj, 6-(Pyrrolidine-1-carbonyl)-3,4-dihydro-1H-pyrrolo[2,1-c][1,4]oxazine-8-carboxylic acid (3,3,3-trifluoro-1-phenyl-propyl)-amide], for which the half-maximal inhibitory concentration (IC50) came out at 1900 nM.

Consider `CC[C@@H](NC(=O)c1cc(C(=O)N[C@H](CC)c2ccc(F)cc2)n2c1C(C)OCC2)c1ccccc1` (stereo partly shown) [16lh], for which the 50% inhibitory concentration (IC50) worked out at 190 nM.

Take `CC[C@@H](NC(=O)c1cc(C(=O)NCc2ccccc2S(C)(=O)=O)n2c1COCC2)c1ccccc1` [16gx, 3,4-Dihydro-1H-pyrrolo[2,1-c][1,4]oxazine-6,8-dicarboxylic acid 6-(2-methanesulfonyl-benzylamide) 8-[((R)-1-phenyl-propyl)-amide]]: the IC50 amounted to 430 nM.

For the molecule `CC[C@@H](NC(=O)c1cc(C(=O)N[C@H](CC)c2cccc(OC)n2)n2c1COCC2)c1ccccc1` [16ic, 3,4-dihydro-1H-pyrrolo[2,1-c][1,4]oxazine-6,8-dicarboxylic acid 6-{[(R)-1-(6-methoxy-pyridin-2-yl)-propyl]-amide} 8-[((R)-1-phenyl-propyl)-amide]], the half-inhibitory concentration (IC50) was 40 nM.

Consider `CC[C@H](NC(=O)c1cc(C(=O)N[C@@H](c2ccc(F)cc2)C(C)C)c2n1CCOC2)c1ccccc1` [16jq, 3,4-Dihydro-1H-pyrrolo[2,1-c][1,4]oxazine-6,8-dicarboxylic acid 8-{[(R)-1-(4-fluoro-phenyl)-2-methyl-propyl]-amide} 6-[((S)-1-phenyl-propyl)-amide]], for which the IC50 was 67 nM.

In the case of `CC[C@@H](NC(=O)c1cc(C(=O)N2CCC[C@@H]2C)n2c1SCC2)c1ccccc1` [16ks, 5-((S)-2-Methyl-pyrrolidine-1-carbonyl)-2,3-dihydro-pyrrolo[2,1-b]thiazole-7-carboxylic acid ((R)-1-phenyl-propyl)-amide], the IC50 is 37 nM.

In the case of `CC[C@@H](NC(=O)c1cc(C(=O)N[C@H](C)c2ccc(OC)cc2)n2c1CCCC2)c1ccccc1` [16mt, 5,6,7,8-Tetrahydro-indolizine-1,3-dicarboxylic acid 3-{[(R)-1-(4-methoxy-phenyl)-ethyl]-amide} 1-[((R)-1-phenyl-propyl)-amide]], the IC50 is 320 nM.

As for `CC[C@@H](NC(=O)c1cc(C(=O)N2CCC[C@@H]2C)n2c1COCC2)c1ccc(C#N)c(Cl)c1` [16d, 6-((S)-2-Methyl-pyrrolidine-1-carbonyl)-3,4-dihydro-1H-pyrrolo[2,1-c][1,4]oxazine-8-carboxylic acid [(R)-1-(3-chloro-4-cyano-phenyl)-propyl]-amide], the IC50 came to 240 nM.

In the case of `CC[C@@H](NC(=O)c1cc(C(=O)NC(C)c2cccc(S(N)(=O)=O)c2)n2c1COCC2)c1ccccc1` (stereo partly drawn) [16ip, 3,4-dihydro-1H-pyrrolo[2,1-c][1,4]oxazine-6,8-dicarboxylic acid 8-[((R)-1-phenyl-propyl)-amide] 6-{[1-(3-sulfamoyl-phenyl)ethyl]-amide}], the IC50 turned out to be 1800 nM.
